Measurements reported in patent US11840528B2 (Hoffmann-La Roche Inc., priority 2018, dated 2023).

What was measured:
[1] = target: T1, h-GABA-A α5β3γ2 (Homo sapiens, UniProt P18507+P31644); experiment: [3H]flumazenil competition binding assay, membranes of HEK293 cells expressing GABAA receptors; conditions: displacement of [3H]-Flumazenil 0.5 nM, HEK293 cells expressing human receptors, mean of two determinations; Table 1
Method in brief: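 Receptor source: human α5β3γ2 transiently transfected into HEK293 cells, membranes in pH 7.5 Krebs-tris. Filtration through GF/C, then scintillation counting.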

[2] = target: T1, h-GABA-A α5β3γ2; experiment: Two-electrode voltage clamp electrophysiology in Xenopus laevis oocytes expressing GABAA receptors, modulation of GABA EC20 current; format: cell-based; design: host or cells: Xenopus laevis oocytes micro-injected with RNA transcripts of the subunits; conditions: Table 1; for Efficacy (GABA) %: % modulation of GABA EC20 = 100*(Fold increase-1); for Fold increase h-GABA-A α5β3γ2 oocyte: test compound at approx. 30 fold its Ki, GABA at EC20
Method in brief: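 Modulation is reported as % of the GABA EC20 current, calculated as 100*(Fold increase−1) from the peak ratio between a second GABA response carrying compound (applied at roughly 30-fold Ki) and a preceding control response. Oocytes expressing human α5β3γ2 were clamped at −80 mV at room temperature, 3–5 days after injection.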

Structure (SMILES) | Ki [1] [nM] | Efficacy (GABA) % [2] [%] | Fold increase h-GABA-A α5β3γ2 oocyte [2]
Cc1ccc(-c2noc(C)c2Cn2ncc(-c3ccc(N(C)C)nc3)cc2=O)cn1 [Example 116, 5-[6-(dimethylamino)-3-pyridyl]-2-((5-methyl-3-(6-methyl-3-pyridyl)isoxazol-4-yl)methyl)pyridazin-3-one] | 30.8 | 84 | 1.84
CCOC1CN(c2cnn(Cc3c(-c4cnc(C)c(F)c4)noc3C)c(=O)c2)C1 [Example 213, 5-(3-ethoxyazetidin-1-yl)-2-((3-(5-fluoro-6-methylpyridin-3-yl)-5-methylisoxazol-4-yl)methyl)pyridazin-3(2H)-one] | 32.8 | 108 | 2.08
Cc1onc(-c2ccc(Cl)nn2)c1Cn1ncc(N2CC(OC(C)(C)C)C2)cc1=O [Example 271, 5-(3-(tert-butoxy)azetidin-1-yl)-2-((3-(6-chloropyridazin-3-yl)-5-methylisoxazol-4-yl)methyl)pyridazin-3(2H)-one] | 7.3 | 90 | 1.9
Cc1ccc(-c2noc(C)c2Cn2ncc(N3C4CCC3COC4)cc2=O)cn1 [Example 35, 2-[[5-methyl-3-(6-methyl-3-pyridyl)isoxazol-4-yl]methyl]-5-(3-oxa-8-azabicyclo[3.2.1]octan-8-yl)pyridazin-3-one] | 0.8 | 179 | 2.79
COc1cc(-c2cnn(Cc3c(-c4ccc(C)nc4)noc3C)c(=O)c2)cnc1OC [Example 179, 5-(5,6-dimethoxypyridin-3-yl)-2-((5-methyl-3-(6-methylpyridin-3-yl)isoxazol-4-yl)methyl)pyridazin-3(2H)-one] | 29.7 | 133 | 2.33
COc1ncc(-c2cnn(Cc3c(-c4ccc(C)nc4)noc3C)c(=O)c2)cc1F [Example 183, 5-(5-fluoro-6-methoxypyridin-3-yl)-2-((5-methyl-3-(6-methylpyridin-3-yl)isoxazol-4-yl)methyl)pyridazin-3(2H)-one] | 28.7 | 137 | 2.37
COc1cc(-c2cnn(Cc3c(-c4ncc(C(F)(F)F)cn4)noc3C)c(=O)c2)ccn1 [Example 228, 5-(2-methoxypyridin-4-yl)-2-((5-methyl-3-(5-(trifluoromethyl)pyrimidin-2-yl)isoxazol-4-yl)methyl)pyridazin-3(2H)-one] | 3.8 | 41 | 1.41
Cc1ccc(-c2noc(C)c2Cn2ncc(-c3ccc(C(F)(F)F)cc3)cc2=O)cn1 [Example 83] | 17.2 | 50 | 1.5
Cc1ccc(-c2noc(C)c2Cn2ncc(-c3ccnc(N(C)C)c3)cc2=O)cn1 [Example 156, 5-(2-(dimethylamino)pyridin-4-yl)-2-((5-methyl-3-(6-methylpyridin-3-yl)isoxazol-4-yl)methyl)pyridazin-3(2H)-one] | 2.6 | 66 | 1.66

The remaining lines, values ahead:

Ki [1] [nM] | Efficacy (GABA) % [2] [%] | Fold increase h-GABA-A α5β3γ2 oocyte [2] | Structure (SMILES)
27.6 | 215 | 3.15 | Cc1onc(-c2ccc(Cl)nc2)c1Cn1ncc(N2CCN3C(=O)CCC3C2)cc1=O (stereo not drawn) [Example 223, 2-(1-((3-(6-chloropyridin-3-yl)-5-methylisoxazol-4-yl)methyl)-6-oxo-1,6-dihydropyridazin-4-yl)hexahydropyrrolo[1,2-a]pyrazin-6(2H)-one]
9.6 | 96 | 1.96 | Cc1ccc(-c2noc(C)c2Cn2ncc(N3CC(OCC(F)(F)F)C3)cc2=O)cn1 [Example 158, 2-[[5-methyl-3-(6-methyl-3-pyridyl)isoxazol-4-yl]methyl]-5-[3-(2,2,2-trifluoroethoxy)azetidin-1-yl]pyridazin-3-one]
45.4 | 126 | 2.26 | Cc1onc(-c2ccc(Cl)nc2)c1Cn1ncc(N2CCC3(CCCO3)CC2)cc1=O [Example 256, 2-((3-(6-chloropyridin-3-yl)-5-methylisoxazol-4-yl)methyl)-5-(1-oxa-8-azaspiro[4.5]decan-8-yl)pyridazin-3(2H)-one]
1.6 | 155 | 2.55 | Cc1ccc(-c2noc(C)c2Cn2ncc(N3CCC(O)CC3)cc2=O)cn1 [Example 5, 5-(4-hydroxy-1-piperidyl)-2-[[5-methyl-3-(6-methyl-3-pyridyl)isoxazol-4-yl]methyl]pyridazin-3-one]
41.6 | 118 | 2.18 | COC1CN(c2cnn(Cc3c(-c4ccc(Cl)nc4)noc3C)c(=O)c2)C1 [Example 212, 2-((3-(6-chloropyridin-3-yl)-5-methylisoxazol-4-yl)methyl)-5-(3-methoxyazetidin-1-yl)pyridazin-3(2H)-one]
9.5 | 181 | 2.81 | Cc1ccc(-c2noc(C)c2Cn2ncc(N3CCN4C(=O)OCC4C3)cc2=O)cn1 (stereo not drawn) [Example 44, 7-(1-((5-methyl-3-(6-methylpyridin-3-yl)isoxazol-4-yl)methyl)-6-oxo-1,6-dihydropyridazin-4-yl)tetrahydro-1H-oxazolo[3,4-a]pyrazin-3(5H)-one]
41.4 | 190 | 2.9 | Cc1onc(-c2ccc(Cl)nc2)c1Cn1ncc(N2CCC3(CCCCO3)CC2)cc1=O [Example 333, 2-[[3-(6-chloro-3-pyridyl)-5-methyl-isoxazol-4-yl]methyl]-5-(1-oxa-9-azaspiro[5.5]undecan-9-yl)pyridazin-3-one]
2.8 | 77 | 1.77 | Cc1ccc(-c2noc(C)c2Cn2ncc(N3CC4(CCCCO4)C3)cc2=O)nn1 [Example 235, 2-((5-methyl-3-(6-methylpyridazin-3-yl)isoxazol-4-yl)methyl)-5-(5-oxa-2-azaspiro[3.5]nonan-2-yl)pyridazin-3(2H)-one]
2.6 | 138 | 2.38 | Cc1ccc(-c2noc(C)c2Cn2ncc(N3CCC(C)(O)CC3)cc2=O)cn1 [Example 119, 5-(4-hydroxy-4-methylpiperidin-1-yl)-2-((5-methyl-3-(6-methylpyridin-3-yl)isoxazol-4-yl)methyl)pyridazin-3(2H)-one]
4.2 | 205 | 3.05 | Cc1onc(-c2ccc(Cl)nc2)c1Cn1ncc(N2CCN(c3ccnnc3)CC2)cc1=O [Example 263, 2-((3-(6-chloropyridin-3-yl)-5-methylisoxazol-4-yl)methyl)-5-(4-(pyridazin-4-yl)piperazin-1-yl)pyridazin-3(2H)-one]
7.5 | 166 | 2.66 | Cc1nonc1N1CCN(c2cnn(Cc3c(-c4ccc(Cl)nc4)noc3C)c(=O)c2)CC1 [Example 280, 2-((3-(6-chloropyridin-3-yl)-5-methylisoxazol-4-yl)methyl)-5-(4-(4-methyl-1,2,5-oxadiazol-3-yl)piperazin-1-yl)pyridazin-3(2H)-one]
